# Reference: patent US6706663B2, “Herbicidal 3-heterocyclic substituted benzisothiazole and benzisoxazole compounds” (Wyeth, priority 2000, dated 2004)
# Columns and labels:
# [1] = system: ABUTH (Abutilon theophrasti); assay: Postemergence herbicidal evaluation; assay type: in vivo, Medic.; conditions: postemergence
# Method in brief: (§1)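 Seedlings grown for about two weeks were sprayed postemergence and then kept under standard greenhouse care. Injury was rated visually 4–5 weeks after treatment on a 0–9 scale against untreated controls, and ratings from repeat tests were averaged.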
# [2] = system: AMBEL (Ambrosia artemisifolia); assay: Postemergence herbicidal evaluation; assay type: in vivo, L.; conditions: postemergence
# Method in brief: as §1
# [3] = system: CASOB (Cassia obtusifolia); assay: Postemergence herbicidal evaluation; assay type: in vivo, L.; conditions: postemergence
# Method in brief: as §1
# [4] = system: CHEAL (Chenopodium album); assay: Postemergence herbicidal evaluation; assay type: in vivo, L.; conditions: postemergence
# Method in brief: as §1
# GALAP (Galium aparine) [5] = assay: Postemergence herbicidal evaluation; assay type: in vivo; conditions: postemergence
# Method in brief: as §1
# [6] = system: IPOHE (Ipomoea hederacea); assay: Postemergence herbicidal evaluation; assay type: in vivo, (L.) Jacq.; conditions: postemergence
# Method in brief: as §1
# SETVI (Setaria viridis) [7] = assay: Postemergence herbicidal evaluation; assay type: in vivo, (L.) Beau; conditions: postemergence
# Method in brief: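 Seedlings grown about two weeks were sprayed with compound in 50/50 acetone/water containing 0.5% TWEEN 20, at about 0.0040 to 1.000 kg/ha via nozzle at 40 psi. Plants were kept under greenhouse conditions and visually rated on a 0-9 scale versus control four to five weeks after treatment; replicate tests averaged.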
# ORYSAT (Rice, Tebonnet) [8] = assay: Postemergence herbicidal evaluation; assay type: in vivo, Oryza sativa, (L.) Tebonnet; conditions: postemergence
# Method in brief: as §1
# [9] = system: TRZAWR (Wheat, Winter, cv Riband); assay: Postemergence herbicidal evaluation; assay type: in vivo, Triticum aestivum; conditions: postemergence
# Method in brief: as §1
# [10] = system: AMBEL (Ambrosia artemisifolia); assay: Preemergence herbicidal evaluation; assay type: in vivo, L.; conditions: rated 4-5 weeks after treatment
# Method in brief: (§2)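 Each species was sown separately in potting soil over roughly one inch of soil, and the surface sprayed with compound dissolved in aqueous acetone. Assessment used a 0–9 visual scale against a control after four to five weeks.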
# [11] = system: CASOB (Cassia obtusifolia); assay: Preemergence herbicidal evaluation; assay type: in vivo, L.; conditions: rated 4-5 weeks after treatment
# Method in brief: as §2
# [12] = system: CHEAL (Chenopodium album); assay: Preemergence herbicidal evaluation; assay type: in vivo, L.; conditions: rated 4-5 weeks after treatment
# Method in brief: as §2
# GALAP (Galium aparine) [13] = assay: Preemergence herbicidal evaluation; assay type: in vivo; conditions: rated 4-5 weeks after treatment
# Method in brief: as §2
# [14] = system: ECHCG (Echinochloa crus-galli); assay: Preemergence herbicidal evaluation; assay type: in vivo, (L.) Beau; conditions: rated 4-5 weeks after treatment
# Method in brief: as §2
# SETVI (Setaria viridis) [15] = assay: Preemergence herbicidal evaluation; assay type: in vivo, (L.) Beau; conditions: rated 4-5 weeks after treatment
# Method in brief: as §2
# ORYSAT (Rice, Tebonnet) [16] = assay: Preemergence herbicidal evaluation; assay type: in vivo, Oryza sativa, (L.) Tebonnet; conditions: rated 4-5 weeks after treatment
# CYPIR (Cyperus iria) = assay: Flooded paddy, preemergence weed control; assay type: in vivo; conditions: rated 3-4 weeks after treatment, 0-9 rating scale
# Method in brief: (§3)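 Visual 0–9 ratings versus controls scored stand, vigor, malformation, size, chlorosis and overall appearance. Plants grew from seeds or propagating organs sown 0.5 cm deep in silt loam, with water held 1.5–3 cm above the soil for the whole test under greenhouse care.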
# [17] = system: MOOVA (Monochoria vaginalis); assay: Flooded paddy, preemergence weed control; assay type: in vivo, Presl.; conditions: rated 3-4 weeks after treatment, 0-9 rating scale
# Method in brief: as §3
# [18] = system: SAGPY (Sagittaria pygmaea); assay: Flooded paddy, preemergence weed control; assay type: in vivo, L.; conditions: rated 3-4 weeks after treatment, 0-9 rating scale
# Method in brief: as §3
smiles,measurement,setting,value
"Cc1cnn(-c2nsc3ccc(-n4c(=O)cc(C(F)(F)F)n(C)c4=O)cc23)c1 [Compound 59, 1-methyl-3-[3-(4-methylpyrazol-1-yl)-1,2-benzisothiazol-5-yl]-6-(trifluoromethyl)uracil]",ABUTH herbicidal rating,[1]; rate 0.0320 kg/ha,9.0
same,ABUTH herbicidal rating,[1]; rate 0.0620 kg/ha,9.0
same,ABUTH herbicidal rating,[1]; rate 0.1250 kg/ha,9.0
same,AMBEL herbicidal rating,[2]; rate 0.0320 kg/ha,9.0
same,AMBEL herbicidal rating,[2]; rate 0.0620 kg/ha,9.0
same,AMBEL herbicidal rating,[2]; rate 0.1250 kg/ha,9.0
same,CASOB herbicidal rating,[3]; rate 0.0320 kg/ha,0.0
same,CASOB herbicidal rating,[3]; rate 0.0620 kg/ha,3.0
same,CASOB herbicidal rating,[3]; rate 0.1250 kg/ha,3.0
same,CHEAL herbicidal rating,[4]; rate 0.0320 kg/ha,8.0
same,CHEAL herbicidal rating,[4]; rate 0.0620 kg/ha,9.0
same,CHEAL herbicidal rating,[4]; rate 0.1250 kg/ha,9.0
same,GALAP herbicidal rating,GALAP (Galium aparine) [5]; rate 0.0320 kg/ha,0.0
same,GALAP herbicidal rating,GALAP (Galium aparine) [5]; rate 0.0620 kg/ha,3.0
same,GALAP herbicidal rating,GALAP (Galium aparine) [5]; rate 0.1250 kg/ha,3.0
same,IPOHE herbicidal rating,[6]; rate 0.0320 kg/ha,8.0
same,IPOHE herbicidal rating,[6]; rate 0.0620 kg/ha,8.0
same,IPOHE herbicidal rating,[6]; rate 0.1250 kg/ha,9.0
same,SETVI herbicidal rating,SETVI (Setaria viridis) [7]; rate 0.0320 kg/ha,0.0
same,SETVI herbicidal rating,SETVI (Setaria viridis) [7]; rate 0.1250 kg/ha,3.0
same,ORYSAT herbicidal rating,"ORYSAT (Rice, Tebonnet) [8]; rate 0.0320 kg/ha",2.0
same,ORYSAT herbicidal rating,"ORYSAT (Rice, Tebonnet) [8]; rate 0.0620 kg/ha",2.5
same,ORYSAT herbicidal rating,"ORYSAT (Rice, Tebonnet) [8]; rate 0.1250 kg/ha",2.5
same,TRZAWR herbicidal rating,[9]; rate 0.0320 kg/ha,3.0
same,TRZAWR herbicidal rating,[9]; rate 0.0620 kg/ha,3.5
same,TRZAWR herbicidal rating,[9]; rate 0.1250 kg/ha,4.0
same,Preemergence herbicidal rating AMBEL,[10]; Rate 0.0620 kg/ha,0.0
same,Preemergence herbicidal rating AMBEL,[10]; Rate 0.1250 kg/ha,5.0
same,Preemergence herbicidal rating AMBEL,[10]; Rate 0.2500 kg/ha,6.0
same,Preemergence herbicidal rating CASOB,[11]; Rate 0.0620 kg/ha,0.0
same,Preemergence herbicidal rating CASOB,[11]; Rate 0.1250 kg/ha,0.0
same,Preemergence herbicidal rating CASOB,[11]; Rate 0.2500 kg/ha,0.0
same,Preemergence herbicidal rating CHEAL,[12]; Rate 0.0620 kg/ha,9.0
same,Preemergence herbicidal rating CHEAL,[12]; Rate 0.1250 kg/ha,9.0
same,Preemergence herbicidal rating CHEAL,[12]; Rate 0.2500 kg/ha,9.0
same,Preemergence herbicidal rating GALAP,GALAP (Galium aparine) [13]; Rate 0.0620 kg/ha,5.0
same,Preemergence herbicidal rating GALAP,GALAP (Galium aparine) [13]; Rate 0.1250 kg/ha,5.0
same,Preemergence herbicidal rating GALAP,GALAP (Galium aparine) [13]; Rate 0.2500 kg/ha,4.0
same,Preemergence herbicidal rating ECHCG,[14]; Rate 0.0620 kg/ha,2.0
same,Preemergence herbicidal rating ECHCG,[14]; Rate 0.1250 kg/ha,3.0
same,Preemergence herbicidal rating ECHCG,[14]; Rate 0.2500 kg/ha,7.0
same,Preemergence herbicidal rating SETVI,SETVI (Setaria viridis) [15]; Rate 0.0620 kg/ha,6.0
same,Preemergence herbicidal rating SETVI,SETVI (Setaria viridis) [15]; Rate 0.1250 kg/ha,6.0
same,Preemergence herbicidal rating SETVI,SETVI (Setaria viridis) [15]; Rate 0.2500 kg/ha,9.0
same,Preemergence herbicidal rating ORYSAT,"ORYSAT (Rice, Tebonnet) [16]; Rate 0.0620 kg/ha",1.0
same,Preemergence herbicidal rating ORYSAT,"ORYSAT (Rice, Tebonnet) [16]; Rate 0.1250 kg/ha",2.0
same,Preemergence herbicidal rating ORYSAT,"ORYSAT (Rice, Tebonnet) [16]; Rate 0.2500 kg/ha",2.0
same,"herbicidal rating, CYPIR",CYPIR (Cyperus iria); rate 0.0080 kg/ha,0.0
same,"herbicidal rating, CYPIR",CYPIR (Cyperus iria); rate 0.0320 kg/ha,3.0
same,"herbicidal rating, CYPIR",CYPIR (Cyperus iria); rate 0.1250 kg/ha,9.0
same,"herbicidal rating, MOOVA",[17]; rate 0.0080 kg/ha,0.0
same,"herbicidal rating, MOOVA",[17]; rate 0.0320 kg/ha,3.0
same,"herbicidal rating, MOOVA",[17]; rate 0.1250 kg/ha,9.0
same,"herbicidal rating, SAGPY",[18]; rate 0.0080 kg/ha,0.0
same,"herbicidal rating, SAGPY",[18]; rate 0.0320 kg/ha,0.0
same,"herbicidal rating, SAGPY",[18]; rate 0.1250 kg/ha,0.0
"Cn1c(C(F)(F)F)cc(=O)n(-c2ccc3snc(-c4ccco4)c3c2)c1=O [Compound 60, 3-[3-(2-furyl)-1,2-benzisothiazol-5-yl]-1-methyl-6-(trifluoromethyl)uracil]",ABUTH herbicidal rating,[1]; rate 0.0320 kg/ha,9.0
same,ABUTH herbicidal rating,[1]; rate 0.0620 kg/ha,9.0
same,AMBEL herbicidal rating,[2]; rate 0.0320 kg/ha,9.0
same,AMBEL herbicidal rating,[2]; rate 0.0620 kg/ha,9.0
same,CASOB herbicidal rating,[3]; rate 0.0320 kg/ha,1.0
same,CASOB herbicidal rating,[3]; rate 0.0620 kg/ha,4.0
same,CHEAL herbicidal rating,[4]; rate 0.0320 kg/ha,6.0
same,CHEAL herbicidal rating,[4]; rate 0.0620 kg/ha,5.0
same,GALAP herbicidal rating,GALAP (Galium aparine) [5]; rate 0.0320 kg/ha,7.0
same,GALAP herbicidal rating,GALAP (Galium aparine) [5]; rate 0.0620 kg/ha,9.0
same,IPOHE herbicidal rating,[6]; rate 0.0320 kg/ha,9.0
same,IPOHE herbicidal rating,[6]; rate 0.0620 kg/ha,9.0
same,SETVI herbicidal rating,SETVI (Setaria viridis) [7]; rate 0.0320 kg/ha,3.0
same,SETVI herbicidal rating,SETVI (Setaria viridis) [7]; rate 0.0620 kg/ha,2.0
same,ORYSAT herbicidal rating,"ORYSAT (Rice, Tebonnet) [8]; rate 0.0320 kg/ha",3.5
same,ORYSAT herbicidal rating,"ORYSAT (Rice, Tebonnet) [8]; rate 0.0620 kg/ha",4.0
same,TRZAWR herbicidal rating,[9]; rate 0.0320 kg/ha,4.0
same,TRZAWR herbicidal rating,[9]; rate 0.0620 kg/ha,4.5
same,Preemergence herbicidal rating AMBEL,[10]; Rate 0.0620 kg/ha,0.0
same,Preemergence herbicidal rating AMBEL,[10]; Rate 0.1250 kg/ha,5.0
same,Preemergence herbicidal rating AMBEL,[10]; Rate 0.2500 kg/ha,9.0
same,Preemergence herbicidal rating CASOB,[11]; Rate 0.0620 kg/ha,0.0
same,Preemergence herbicidal rating CASOB,[11]; Rate 0.1250 kg/ha,0.0
same,Preemergence herbicidal rating CASOB,[11]; Rate 0.2500 kg/ha,0.0
same,Preemergence herbicidal rating CHEAL,[12]; Rate 0.0620 kg/ha,7.0
same,Preemergence herbicidal rating CHEAL,[12]; Rate 0.1250 kg/ha,9.0
same,Preemergence herbicidal rating CHEAL,[12]; Rate 0.2500 kg/ha,9.0
same,Preemergence herbicidal rating GALAP,GALAP (Galium aparine) [13]; Rate 0.0620 kg/ha,6.0
same,Preemergence herbicidal rating GALAP,GALAP (Galium aparine) [13]; Rate 0.1250 kg/ha,7.0
same,Preemergence herbicidal rating GALAP,GALAP (Galium aparine) [13]; Rate 0.2500 kg/ha,9.0
same,Preemergence herbicidal rating ECHCG,[14]; Rate 0.0620 kg/ha,1.0
same,Preemergence herbicidal rating ECHCG,[14]; Rate 0.1250 kg/ha,6.0
same,Preemergence herbicidal rating ECHCG,[14]; Rate 0.2500 kg/ha,7.0
same,Preemergence herbicidal rating SETVI,SETVI (Setaria viridis) [15]; Rate 0.0620 kg/ha,3.0
same,Preemergence herbicidal rating SETVI,SETVI (Setaria viridis) [15]; Rate 0.1250 kg/ha,7.0
same,Preemergence herbicidal rating SETVI,SETVI (Setaria viridis) [15]; Rate 0.2500 kg/ha,9.0
same,Preemergence herbicidal rating ORYSAT,"ORYSAT (Rice, Tebonnet) [16]; Rate 0.0620 kg/ha",1.0
same,Preemergence herbicidal rating ORYSAT,"ORYSAT (Rice, Tebonnet) [16]; Rate 0.1250 kg/ha",4.0
same,Preemergence herbicidal rating ORYSAT,"ORYSAT (Rice, Tebonnet) [16]; Rate 0.2500 kg/ha",6.0
same,"herbicidal rating, CYPIR",CYPIR (Cyperus iria); rate 0.0080 kg/ha,0.0
same,"herbicidal rating, CYPIR",CYPIR (Cyperus iria); rate 0.0320 kg/ha,6.0
same,"herbicidal rating, CYPIR",CYPIR (Cyperus iria); rate 0.1250 kg/ha,7.0
same,"herbicidal rating, MOOVA",[17]; rate 0.0080 kg/ha,0.0
same,"herbicidal rating, MOOVA",[17]; rate 0.0320 kg/ha,9.0
same,"herbicidal rating, MOOVA",[17]; rate 0.1250 kg/ha,9.0
same,"herbicidal rating, SAGPY",[18]; rate 0.0080 kg/ha,0.0
same,"herbicidal rating, SAGPY",[18]; rate 0.0320 kg/ha,0.0
same,"herbicidal rating, SAGPY",[18]; rate 0.1250 kg/ha,2.5
